The values that follow come from patent US20240277737A1, “METHOD FOR GENERATING DRY POWDER SUITABLE FOR INHALATION ADMINISTRATION OF ANTIMICROBIAL PHOSPHOLIPID COMPOSITIONS” (Celestial Therapeutics, Inc., priority 2021, published 2024).

Usually Solubility stands for the dissolved amount per volume that the medium holds.

Values after ≈ are worked out from the molar mass of the structure shown.

A short description of data set [1]: solubility screening for API spray drying (organic solvents). It is filed as physicochemical. How it is done:
The solubility of the surfactant was investigated to identify a suitable solvent system in which the surfactants can be solubilized to process the material by spray drying.
The class III solvents were preferred to the class II solvents because the […] and of lower risk to human health. The solubility of the POPG using class III solvent was lower than 0.5 mg/mL. For this reason, Class II solvents were investigated. The highest solubility was obtained with a mixture DCM/Methanol 5:1 v/v and it will be used as a vehicle for the spray drying process.

Data set [2] is described as follows: particle size distribution by Sympatec laser particle sizer (RODOS/ASPIROS, 3 bar). It is filed as physicochemical. The note with it: raw material, R5 lens. The method, then: The Particle Size Distribution analysis was performed at 3 bar dispersion pressure using a Sympatec laser Particle Sizer equipped with RODOS/ASPIROS dispersion unit and an R5 lens.
The particle size analysis of the spray dried powders was performed at 3 bar dispersion pressure using a Sympatec laser Particle Sizer equipped with RODOS/ASPIROS dispersion unit and an R3 lens (n=2) and is summarised in Table 13 and in FIG. 19-FIG. 21. The PSD of spray dried powders decreased with increasing atomisation pressure and reducing outlet temperature during the spray drying manufacture.
The PSD analysis performed on 174 #003A-01 & 174 #003B-01 following storage at −20° C. was repeat-ed.
The spray dried product 174 #005A-01 was vacuum dried for 24 hours at 25° C. with a maximum pressure ˜0.1 mbar. After the 24 hours, the PSD of this product was evaluated. Post vacuum drying, increased amounts of aggregated material were observed and as a result the Dv90 increased.
Based on the PSD results after the storage, an aliquot of the formulation 174 #005A-01, that was stored at −20° C. for 4 weeks, was taken out from the freezer, transferred in sealed container and equilibrated for 5 hours at ambient temperature (20 C-25 C, <30% RH) in a sealed vial.
The 174 #010A-01 post vacuum drying was separated in different aliquot and stored at 2-8° C. and at −20° C. The PSD and DSC of the spray dried powder was evaluated through time. The spray dried powder was removed from the storage condition an equilibrated at low RH for 5 hours (19° C. and 28% RH) before to perform any test. […]
The particle size distribution of the micronized sample was determined by laser particle size analysis using an R1 (0.1-35.0 μm range) & R3 lens (0.5-175.0 μm range) at 3 bar dispersal pressure at T-0 and after T=7 days after storage of the sample at −20° C. […] There was a slight discrepancy between the two lenses, with the trace of the material measured using the R1 lens appearing larger and very slightly bimodal which wasn't apparent in the trace measured using an R3 lens. […]

For data set [3], the system named is Toll-like receptor 4 (TLR4) interacting proteins CD14 and MD-2. To be noted: cited from earlier work.
Data set [4] concerns Respiratory Syncytial Virus (RSV). The note with it: bronchial epithelial cells; cited from earlier work.

Regarding `CCCCCCCC/C=C\CCCCCCCC(=O)O[C@H](COC(=O)CCCCCCCCCCCCCCC)COP(=O)(O)OCC(O)CO` (mixture of isomers) [POPG, 1-Palmitoy-2-loleoyl-sn-glycerol-3-phospho-(1′-rac-glycerol)], the Solubility in data set [1] (Acetone) was less than 500 µg/mL; in data set [1] (Chloroform) it was 16700 µg/mL (≈ 22300 µM); in data set [1] (Cycloexhane), less than 500 µg/mL; in data set [1] (DCM/ Methanol 5:1 v/v) it was roughly 70000 µg/mL (≈ 93500 µM); in data set [1] (Dichloromethane (DCM)) it was less than 500 µg/mL; in data set [1] (Dimethyl sulfoxide (DMSO)), 500 µg/mL (≈ 668 µM). Also, the Solubility is less than 500 µg/mL in data set [1] (Dimethylformamide (DMF)); 500 µg/mL (≈ 668 µM) in data set [1] (Ethanol (96%)); less than 500 µg/mL in data set [1] (Ethyl Acetate); less than 500 µg/mL in data set [1] (Heptane); less than 500 µg/mL in data set [1] (Isopropanol (IPA)); 1350 µg/mL (≈ 1800 µM) in data set [1] (Methanol). Further, the Solubility result in data set [1] (class III solvent) is on record as “lower than 0.5 mg/mL”. In addition, in data set [2], the VMD came out at 59.05 ± 13.17 μm. In data set [2], this molecule yielded an X10 of 1.80 ± 0.07 μm. Further, the X50 in data set [2] was found to be 12.65 ± 4.65 μm. Also, the “inflammatory responses induced by lipopolysaccharide” value in data set [3] is recorded as “markedly attenuate”. Besides, in data set [4], the “cytopathic effects induced by RSV” value is listed as “significantly inhibited”. For the same molecule, in data set [4], the interleukin-6 production entry is “significantly inhibited”. The interleukin-8 production result in data set [4] is given as “significantly inhibited”.
